Source: US8859557B2, “Substituted oxindole derivatives and their use as vasopressin receptor ligands” (Abbott GmbH & Co. KG, priority 2006, dated 2014)
Counter-ions that a name gives are not always drawn.

Experiments:
[1] = target: T1, human vasopressin V1b receptor (Homo sapiens, UniProt P47901); assay: Vasopressin V1b receptor binding assay; settings: displacement of 3H-AVP, membranes of CHO-K1 cells with human V1b receptor
T1 construct: expressed in transfected cells; host or cells: CHO-K1 (cell line hV1b-3H2_CHO), membrane preparation
T1 sequence (P47901 1-424): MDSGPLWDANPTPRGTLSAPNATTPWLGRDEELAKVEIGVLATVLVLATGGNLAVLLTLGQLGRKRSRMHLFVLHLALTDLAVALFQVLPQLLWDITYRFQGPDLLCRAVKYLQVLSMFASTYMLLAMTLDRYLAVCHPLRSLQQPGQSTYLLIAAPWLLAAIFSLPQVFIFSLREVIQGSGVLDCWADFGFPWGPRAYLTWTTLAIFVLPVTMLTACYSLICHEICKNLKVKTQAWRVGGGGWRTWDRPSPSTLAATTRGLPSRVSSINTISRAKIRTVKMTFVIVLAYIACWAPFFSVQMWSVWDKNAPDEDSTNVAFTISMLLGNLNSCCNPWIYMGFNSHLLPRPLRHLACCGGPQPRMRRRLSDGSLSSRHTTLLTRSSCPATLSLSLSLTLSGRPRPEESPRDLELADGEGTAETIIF
Method: Methods for Determining the Biological Activity Vasopressin V1b Receptor Binding Assay: Substances:
This series of DMSO predilutions was diluted 1:10 with assay buffer. The substance concentration was again diluted 1:5 in the assay mixture (2% DMSO in the mixture).
All determinations were carried out as triplicate determinations.

[2] = target: T2, recombinant human oxytocin receptors (Homo sapiens, UniProt P30559); assay: Oxytocin receptor binding assay; settings: selectivity for V1b over oxytocin receptor, quotient of Ki values
T2 construct: expressed in transfected cells; host or cells: HEK-293, transient expression; lysed and homogenized cells
T2 sequence (P30559 1-389): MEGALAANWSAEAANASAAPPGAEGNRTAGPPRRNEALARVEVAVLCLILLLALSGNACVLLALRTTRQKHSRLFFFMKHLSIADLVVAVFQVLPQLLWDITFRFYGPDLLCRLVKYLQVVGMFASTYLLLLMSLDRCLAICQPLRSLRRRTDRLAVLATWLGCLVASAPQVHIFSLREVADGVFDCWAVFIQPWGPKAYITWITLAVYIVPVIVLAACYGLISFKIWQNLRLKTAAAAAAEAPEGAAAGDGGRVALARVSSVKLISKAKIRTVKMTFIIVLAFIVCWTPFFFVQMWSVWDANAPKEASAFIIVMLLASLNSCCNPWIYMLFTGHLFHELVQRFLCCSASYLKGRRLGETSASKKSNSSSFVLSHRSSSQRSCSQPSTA
Method: Oxytocin Receptor Binding Assay
Confluent HEK-293 cells with transiently expressing recombinant human oxytocin receptors were centrifuged at 750×g and at room temperature for 5 minutes. The residue was taken up in ice-cold lysis buffer (50 mM Tris-HCl, 10% glycerol, pH 7.4 and Roche Complete Protease Inhibitor) and subjected to an osmotic shock at 4° C. for 20 minutes. The lyzed cells were then centrifuged at 750×g and at 4° C. for 20 minutes, the residue was taken up in incubation buffer, and aliquots of 10^7 cells/ml were prepared. The aliquots were frozen at −80° C. until used.
On the day of the experiment, the cells were thawed, diluted with incubation buffer and homogenized using a Multipette Combitip (Eppendorf, Hamburg). […] The nonspecific binding was determined with 10^−6 M oxytocin (Bachem AG, H2510). Determinations in triplicate were set up. Bound and free radioligand were separated by filtration under vacuum with Whatman GF/B glass fibre filters using a Skatron cell harvester 7000. The bound radioactivity was determined by liquid scintillation measurement in a Tricarb beta counter, model 2000 or 2200CA (Packard).

[3] = target: human vasopressin V1a receptor (Homo sapiens, UniProt P37288); assay: Vasopressin V1a receptor binding assay; settings: selectivity for V1b over V1a, quotient of Ki values
Sequence of human vasopressin V1a receptor (P37288 whole entry): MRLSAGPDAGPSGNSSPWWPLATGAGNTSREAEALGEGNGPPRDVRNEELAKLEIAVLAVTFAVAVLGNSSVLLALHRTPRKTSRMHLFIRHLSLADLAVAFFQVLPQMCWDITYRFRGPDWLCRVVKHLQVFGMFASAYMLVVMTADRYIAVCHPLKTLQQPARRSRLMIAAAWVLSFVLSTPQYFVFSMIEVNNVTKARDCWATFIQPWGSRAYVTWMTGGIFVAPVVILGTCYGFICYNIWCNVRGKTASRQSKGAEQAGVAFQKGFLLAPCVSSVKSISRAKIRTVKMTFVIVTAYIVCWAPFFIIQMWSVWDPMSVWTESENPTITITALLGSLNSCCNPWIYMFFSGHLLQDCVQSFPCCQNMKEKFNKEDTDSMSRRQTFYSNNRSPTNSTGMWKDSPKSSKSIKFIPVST

[4] = Determination of the microsomal half-life / microsomal clearance (human); format: in vitro ADME; settings: pH 7.4; human liver microsomes, 0.5 μM test substance, 0.25 mg microsomal protein/ml; read-out: Human Mikrosomal Clearance
Method: The metabolic stability of a compound can be determined, for example, by incubating a solution of this compound with liver microsomes from particular species (for example rat, dog or human) and determining the half-life of the compound under these conditions (RS Obach, Curr Opin Drug Discov Devel. 2001, 4, 36-44). It is possible to conclude from an observed larger half-life that the metabolic stability of the compound is improved. The stability in the presence of human liver microsomes is of particular interest since it makes it possible to predict the metabolic degradation of the compound in the human liver. Compounds with increased metabolic stability (determined in the liver microsome test) are therefore probably also degraded more slowly in the liver. The slower metabolic degradation in the liver can lead to higher and/or longer-lasting concentrations (effective levels) of the compound in the body, so that the elimination half-life of the compounds according to the invention is increased. Increased and/or longer-lasting effective levels may lead to a better efficacy of the compound in the treatment or prophylaxis of various vasopressin-dependent diseases. An improved metabolic stability may additionally lead to an increased bioavailability after oral administration, because the compound is subjected, after being absorbed in the intestine, to less metabolic degradation in the liver (so-called first pass effect). An increased oral bioavailability may, because the concentration (effective level) of the compound is increased, lead to a better efficacy of the compound after oral administration.
Determination of the Microsomal Half-Life:
The metabolic stability of the compounds of the invention was determined in the following assay.
The test substances are incubated in a concentration of 0.5 μM as follows:
0.5 μM test substance is preincubated together with liver microsomes of various species (rat, human or other species) (0.25 mg of microsomal protein/ml) in 0.05M potassium phosphate buffer pH 7.4 in microtitre plates at 37° C. for 5 min. The reaction is started by adding NADPH (1 mg/ml). 50 μl aliquots are taken after 0, 5, 10, 15, 20 and 30 min, and the reaction is stopped immediately with the same volume of acetonitrile and cooled down. The samples are frozen until analyzed. Using MSMS, the remaining concentration of undegraded test substance is determined. From the […] of the test substance signal/time unit curve, the half-life (T½) is determined, where the half-life of the test substance can be calculated, assuming first order kinetics, from the decrease in the concentration of the compound with time. The microsomal clearance (mCl) is calculated as mCl=In2/T½/(content of microsomal protein in mg/ml)×1000 [ml/min/mg] (modified according to the literature references: Di, The Society for Biomoleculaur Screening, 2003, 453-462; Obach, DMD, 1999 vol 27. N 11, 1350-1359).

Ki [1] [µM]	Ki(h-OT)/Ki(h-V1b) [2]	Ki(h-V1a)/Ki(h-V1b) [3]	microsomal CLint at 0.5 μM [4] [µL/min/mg]	Structure (SMILES)
–	+++ (>50)	+++ (>100)	–	CCOc1ncccc1C1(NC(=O)N2CCC(C3CCN(C)CC3)CC2)C(=O)N(S(=O)(=O)c2ccc(OC)cc2OC)c2ccc(C#N)cc21.O=C(O)C(F)(F)F (single isomer, unassigned) [Example 61B, (−)-N-[5-Cyano-1-[(2,4-dimethoxyphenyl)sulphonyl)-3-(2-ethoxypyridin-3-yl)-2-oxo-2,3-dihydro-1H-indol-3-yl]-1′-methyl-4,4′-bipiperidine-1-carboxamide trifluoroacetate]
< 0.01	–	–	< 60	CCOc1ncccc1[C@]1(NC(=O)N2CCC(C3CCN(C)CC3)CC2)C(=O)N(S(=O)(=O)c2ccc(OC)cc2OC)c2ccc(C#N)cc21 (single isomer, unassigned) [Example 61B, (−)-N-[5-Cyano-1-[(2,4-dimethoxyphenyl)sulphonyl)-3-(2-ethoxypyridin-3-yl)-2-oxo-2,3-dihydro-1H-indol-3-yl]-1′-methyl-4,4′-bipiperidine-1-carboxamide trifluoroacetate]
< 0.01	+++ (>50)	+++ (>100)	–	CCOc1ncccc1C1(NC(=O)N2CCC(C3CCN(CC)CC3)CC2)C(=O)N(S(=O)(=O)c2ccc(OC)cc2OC)c2ccc(C#N)cc21.O=C(O)C(F)(F)F (single isomer, unassigned) [Example 67B, (−)-N-[5-Cyano-1-[(2,4-dimethoxyphenyl)sulphonyl]-3-(2-ethoxypyridin-3-yl)-2-oxo-2,3-dihydro-1H-indol-3-yl]-1′-ethyl-4,4′-bipiperidine-1-carboxamide trifluoroacetate]

Further lines, the molecule ahead of its results:

Structure (SMILES)	Ki [1] [µM]	Ki(h-OT)/Ki(h-V1b) [2]	Ki(h-V1a)/Ki(h-V1b) [3]	microsomal CLint at 0.5 μM [4] [µL/min/mg]
CCOc1ncccc1C1(NC(=O)N2CCN(C3CCN(C)CC3)CC2)C(=O)N(S(=O)(=O)c2ccccc2OC)c2ccc(C#N)cc21 (racemic) [Example 2, N-{5-Cyano-3-(2-ethoxypyridin-3-yl)-1-[(2-methoxyphenyl)sulphonyl]-2-oxo-2,3-dihydro-1H-indol-3-yl}-4-(1-methylpiperidin-4-yl)piperazine-1-carboxamide]	0.01 to 0.05	+++ (>50)	+++ (>100)	–
CCOc1ccccc1S(=O)(=O)N1C(=O)C(NC(=O)N2CCN(C3CCN(C)CC3)CC2)(c2cccnc2OCC)c2cc(C#N)ccc21.O=C(O)C(F)(F)F (racemic) [Example 3, N-[5-Cyano-1-[(2-ethoxyphenyl)sulphonyl]-3-(2-ethoxypyridin-3-yl)-2-oxo-2,3-dihydro-1H-indol-3-yl]-4-(1-methylpiperidin-4-yl)piperazine-1-carboxamide trifluoroacetate]	0.01 to 0.05	+++ (>50)	+++ (>100)	–
CCOc1ncccc1C1(NC(=O)N2CCN(C3CCN(C)CC3)CC2)C(=O)N(S(=O)(=O)c2ccc(OC)cc2)c2ccc(C#N)cc21 (racemic) [Example 5, N-[5-Cyano-3-(2-ethoxypyridin-3-yl)-1-[(4-methoxyphenyl)sulphonyl]-2-oxo-2,3-dihydro-1H-indol-3-yl]-4-(1-methylpiperidin-4-yl)piperazine-1-carboxamide]	–	–	–	< 60
CCOc1ncccc1C1(NC(=O)N2CCC(N3CCN(C)CC3)CC2)C(=O)N(S(=O)(=O)c2ccccc2OC)c2ccc(C#N)cc21 (racemic) [Example 32, N-[5-Cyano-3-(2-ethoxypyridin-3-yl)-1-[(2-methoxyphenyl)sulphonyl]-2-oxo-2,3-dihydro-1H-indol-3-yl]-4-(4-methylpiperazin-1-yl)piperidine-1-carboxamide]	0.01 to 0.05	+++ (>50)	+ (15-50)	–
CCOc1ncccc1C1(NC(=O)N2CCC(N3CCN(C)CC3)CC2)C(=O)N(S(=O)(=O)c2ccccc2)c2ccc(C#N)cc21 (racemic) [Example 34, N-[5-Cyano-3-(2-ethoxypyridin-3-yl)-2-oxo-1-(phenylsulphonyl)-2,3-dihydro-1H-indol-3-yl]-4-(4-methylpiperazin-1-yl)piperidine-1-carboxamide]	–	–	–	< 60
CCCN1CCN(C2CCN(C(=O)NC3(c4cccnc4OCC)C(=O)N(S(=O)(=O)c4ccc(OC)cc4OC)c4ccc(C#N)cc43)CC2)CC1 (racemic) [Example 43, N-[5-Cyano-1-[(2,4-dimethoxyphenyl)sulphonyl]-3-(2-ethoxypyridin-3-yl)-2-oxo-2,3-dihydro-1H-indol-3-yl]-4-(4-propylpiperazin-1-yl)piperidine-1-carboxamide]	< 0.01	+++ (>50)	+++ (>100)	–
CCOc1ncccc1C1(NC(=O)N2CCC(C3CCN(C)CC3)CC2)C(=O)N(S(=O)(=O)c2ccc(OC)cc2OC)c2ccc(C#N)cc21 (racemic) [Example 61, N-[5-Cyano-1-[(2,4-dimethoxyphenyl)sulphonyl]-3-(2-ethoxypyridin-3-yl)-2-oxo-2,3-dihydro-1H-indol-3-yl]-1′-methyl-4,4′-bipiperidine-1-carboxamide]	< 0.01	+++ (>50)	+++ (>100)	–
CCOc1ncccc1C1(NC(=O)N2CCC(C3CCN(CC)CC3)CC2)C(=O)N(S(=O)(=O)c2ccc(OC)cc2OC)c2ccc(C#N)cc21.O=C(O)C(F)(F)F (racemic) [Example 67, N-[5-Cyano-1-[(2,4-dimethoxyphenyl)sulphonyl]-3-(2-ethoxypyridin-3-yl)-2-oxo-2,3-dihydro-1H-indol-3-yl]-1′-ethyl-4,4′-bipiperidine-1-carboxamide trifluoroacetate]	< 0.01	+++ (>50)	+++ (>100)	–
